Source: patent US6287848A, “Dosage modeling system” (Johns Hopkins University, priority 1999, dated 2001)
Like-named read-outs stand apart in the source and are kept apart here.

Tests used:
[1] = tested on: human T-lymphoblastic cell line CEM, infected with HIV; test: Intracellular and extracellular pharmacokinetic profiles of ZDV and its metabolites in hollow-fiber bioreactor dosing system (Example 2); type: in vitro ADME
Protocol: The bioreactor includes a cartridge of polypropylene capillaries that is commercially available from Unisyn Technologies, Inc. (Hopkinton, Mass.). The cells in the bioreactor are a human T-lymphoblastic cell line CEM, infected with HIV. The volume of distribution (VD), which is total amount of fluid in the loop 201 and the central reservoir 230, is 50 ml. The fast and slow pumps are Ismatic Peristaltic Pumps commercially available from Cole-Parmer (Niles, Ill.). The dosing element is a programmable dosing pump commercially available from Medex, Inc. (Deluth, Ga.).
The fast pump is operated at a flow rate of 35 ml/min. The dilution pump 218 is operated at a flow rate of 0.5 ml/min.
The drug Zidovudine (ZDV) is infused at four different dosing regimens for a dosing period of 24 hours, i.e., 0.1 μg/ml, continuously at 0.37 μM; 100 μg every 8 hours; 150 μg every 12 hours; and 300 μg at 24 hours. The control is operated without dosing ZDV.
Samples are removed through sampling port 272. Extracellular concentrations are determined from the fluid, and intracellular concentrations are determined after harvesting and treating the cells to extract the contents.
Drug concentration time curves allow the determination of Cmax, Cmin and AUC.
Thus, the AUCs are similar for the intracellular ZDV-diphosphate and intracellular ZDV-triphosphate.

[2] = tested on: HIV reverse transcriptase; conditions: active metabolite; cited from earlier work

Row | Compound | intracellular AUCs across four dosing regimens [1] | intracellular concentration on increasing the dose of ZDV [1] | intracellular concentration profiles across four dosing regimens ([1]; FIG. 11a-c, ZDV infused over 24 h: continuously at 0.37 μM, 100 μg every 8 hours, 150 μg every 12 hours, 300 μg at 24 hours) | intracellular concentration on increasing the dose of ZDV ([1]; increasing the dose of ZDV) | rate limiting step of intracellular ZDV phosphorylation ([1]; suggested by the data) | amount of ZDV-triphosphate resulting from all four dosing regimens [1] | inhibits HIV reverse transcriptase, which results in the inhibition of HIV replication [2]
1 | Cc1cn([C@H]2C[C@H](N=[N+]=[N-])[C@@H](COP(=O)(O)OP(=O)(O)O)O2)c(=O)[nH]c1=O [ZDV-diphosphate] | similar | does not result in an increase | – | – | – | – | –
2 | Cc1cn([C@H]2C[C@H](N=[N+]=[N-])[C@@H](COP(=O)(O)O)O2)c(=O)[nH]c1=O [ZDV-monophosphate] | – | – | different profiles | relative increase | rate limiting step is the conversion of ZDV-monophosphate to ZDV-iphosphate | – | –
3 | Cc1cn([C@H]2C[C@H](N=[N+]=[N-])[C@@H](CO[P@](=O)(O)O[P@](=O)(O)OP(=O)(O)O)O2)c(=O)[nH]c1=O [ZDV-triphosphate] | similar | does not result in an increase | – | – | – | same amount | inhibits HIV reverse transcriptase
